Source: patent US5942519A, “Prevention of precipitated acute urinary retention” (Merck & Co., Inc., priority 1998, dated 1999)

Columns and labels:
[1] = test system: BPH / spontaneous acute urinary retention; settings: patients with BPH; cited from earlier work
[2] = test system: human type 2 enzyme (5α-reductase); settings: cited from earlier work
[3] = test system: precipitated acute urinary retention; experiment: Four-year double-blind, placebo-controlled study in men with BPH: precipitated acute urinary retention; format: in vivo, human
Experimental: A total of 3040 men with moderate to severe symptoms of BPH and enlarged prostates were treated with either finasteride (17β-(N-tert-butylcarbamoyl)-3-oxo-4-aza-5α-androst-1-en-3-one,5 mg daily) or placebo in a four year double-blind, placebo-controlled study. BPH-related outcomes were assessed every 4 months. Patients on alpha blockers, antiandrogens, with a history of chronic prostatitis, recurrent urinary tract infections, or prior prostate or bladder surgery were excluded. A total of 3016 patients randomized to treatment had efficacy data and were included in the analysis of precipitated acute urinary retention; 1513 in the finasteride group and 1503 in the placebo group.
The endpoint committee, blinded to treatment group, reviewed all study-related documents related to episodes of acute urinary retention to classify the episodes as spontaneous or precipitated by other factors. All acute urinary retentions were classified by the endpoint committee as being "clearly" BPH related ("spontaneous") if there was no clear precipitating event, such as surgery within 72 hours, a precipitating medical event (e.g. stroke), or ingestion of a medication thought to precipitate retention (e.g., pseudoephedrine hydrochloride), etc. The other episodes of acute urinary retention were classified as not "clearly" BPH related ("precipitated") since there was likely to be more than one factor (including BPH) involved that precipitated the event.
Acute urinary retention was analyzed using the log-rank test for time-to-first-event and corroborated with Fisher's exact test on the cumulative incidence.

For `CC(C)(C)NC(=O)[C@H]1CC[C@H]2[C@@H]3CC[C@H]4NC(=O)C=C[C@]4(C)[C@H]3CC[C@]12C` [finasteride, 17β-(N-tert-butylcarbamoyl)-3-oxo-4-aza-5α-androst-1-en-3-one], the “reducing spontaneous acute urinary retention (in words)” value [1] is given as “significantly reducing spontaneous acute urinary retention”, the “treating BPH (in words)” value [1] is given as “effective in treating BPH” and the “inhibition of the human type 2 enzyme (in words)” value [2] is given as “potent inhibitor of the human type 2 enzyme”. For the same compound, the “patients with an episode of precipitated acute urinary retention (percent)” value ([3]; 5 mg daily, 4-year study period, n=1513 finasteride, placebo 3.3%) was 1.5%, the “patients with an episode of precipitated acute urinary retention (number)” value ([3]; 5 mg daily, 4-year study period, n=1513 finasteride, placebo 49 of 1503) was 23 patients and the “reduction of the risk of having an episode of precipitated acute urinary retention” value ([3]; 5 mg daily, compared with placebo, over the 4-year study period) was 52%. The “relative risk (hazard ratio) versus placebo, precipitated acute urinary retention” value ([3]; finasteride 5 mg daily versus placebo, 4-year study period) was 0.48.
